Reference: ChEMBL document CHEMBL1201862, “PubChem BioAssay data set” (2004)
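Cells were grown in 96-well plates and exposed to each compound for 48 hours at five concentrations; endpoints were interpolated linearly between bracketing concentrations, or set to the highest concentration if not reached. GI50 marks 50% less growth.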 The source made the active and inactive calls. Cut-off read from the data, not from the text of the source: active = GI50 up to about 1.1 µM and inactive = higher.

Experiments:
Assay in all cases: growth of human tumour cells (NCI), 48 h
[1] = system: Malme-3M
[2] = system: DMS-273
[3] = system: A498
[4] = system: HOP-62
[5] = system: HT-29
[6] = system: SK-OV-3
[7] = system: OVCAR-3
[8] = system: HCT-15
[9] = system: HL-60
[10] = system: CAKI-1
[11] = system: SF-268
[12] = system: DMS-114
[13] = system: MDA-MB-435
[14] = system: U-251
[15] = system: NCI-H23
[16] = system: KM12
[17] = system: RXF 393
[18] = system: M14
[19] = system: IGROV-1
[20] = system: UACC-257
[21] = system: KM-20L2
[22] = system: SK-MEL-5
[23] = system: HOP-18
[24] = system: NCI-H460
[25] = system: MOLT-4
[26] = system: OVCAR-8
[27] = system: PC-3
[28] = system: UO-31
[29] = system: Hs-578T
[30] = system: HCC 2998
[31] = system: SF-295
[32] = system: UACC-62
[33] = system: DLD-1
[34] = system: LXFL 529
[35] = system: DU-145
[36] = system: BT-549
[37] = system: SK-MEL-2
[38] = system: HOP-92
[39] = system: EKVX
[40] = system: XF498
[41] = system: T47D
[42] = system: SW-620
[43] = system: NCI-H226
[44] = system: SNB-19
[45] = system: CCRF-CEM
[46] = system: HCT-116
[47] = system: SK-MEL-28
[48] = system: OVCAR-5
[49] = system: SN12C
[50] = system: NCI-H522
[51] = system: LOX IMVI
[52] = system: OVCAR-4
[53] = system: MDA-N
[54] = system: M19-MEL
[55] = system: ACHN
[56] = system: COLO 205
[57] = system: MDA-MB-231
[58] = system: A549
[59] = system: MCF7
[60] = system: NCI/ADR-RES
[61] = system: 786-0
[62] = system: SNB-78
[63] = system: TK-10
[64] = system: SF-539
[65] = system: SNB-75
[66] = system: RPMI-8226
[67] = system: K562
[68] = system: SR

Measured: GI50

CCC(=O)OC1CCn2c1nc1c2C(=O)C(C)=C(N2CC2)C1=O (configuration not stated)
27.5 nM: [8]
inactive: [25] 3410 nM | [38] 1530 nM | [41] 1600 nM | [57] 1420 nM
active: [1] 63 nM | [2] 45 nM | [3] 52.6 nM | [4] 69.7 nM | [5] 183 nM | [6] 103 nM | [7] 67 nM | [9] 350 nM | [10] 50.9 nM | [11] 75.5 nM | [12] 120 nM | [13] 25.4 nM | [14] 37.1 nM | [15] < 42.3 nM | [16] 93.8 nM | [17] 56.5 nM | [18] 69.8 nM | [19] 482 nM | [20] 71.1 nM | [21] 233 nM | [22] 29.4 nM | [23] 43.9 nM | [24] 45 nM | [26] 67.8 nM | [27] 105 nM | [28] 69.8 nM | [29] 45.5 nM | [30] 61.5 nM | [31] 72.8 nM | [32] 60.7 nM | [33] 105 nM | [34] 93.3 nM | [35] 7.43 nM | [36] 54.6 nM | [37] 64 nM | [39] 224 nM | [40] 34.5 nM | [42] 48.8 nM | [43] 111 nM | [44] 98.9 nM | [45] 590 nM | [46] 93.5 nM | [47] 79.1 nM | [48] 90.2 nM | [49] 88.1 nM | [50] 36.1 nM | [51] 77.1 nM | [52] 126 nM | [53] 43 nM | [54] 146 nM | [55] 89.5 nM | [56] 199 nM | [58] 115 nM | [59] 6.37 nM | [60] 48 nM | [61] 84.1 nM | [62] 462 nM | [63] 38.3 nM | [64] 143 nM | [65] 30.1 nM

C[C@@]12CCC(=O)c3coc(c31)C(=O)c1cc3c(cc12)C(=O)C=CC3=O [HELENAQUINONE]
inactive: [1] 17300 nM | [2] 15500 nM | [3] > 100000 nM | [4] > 100000 nM | [5] 19700 nM | [6] > 100000 nM | [7] 18700 nM | [9] 2450 nM | [10] 21100 nM | [11] 18800 nM | [12] 14000 nM | [14] 23700 nM | [15] 12500 nM | [16] 24700 nM | [17] 21200 nM | [18] 14500 nM | [66] 64600 nM | [19] 25900 nM | [20] 11600 nM | [21] > 86500 nM | [22] 15100 nM | [23] 17300 nM | [24] 26600 nM | [25] 14300 nM | [26] 16300 nM | [28] 17200 nM | [30] > 71300 nM | [31] 16700 nM | [32] 15500 nM | [33] 15400 nM | [34] 17400 nM | [37] 23900 nM | [38] 6930 nM | [39] 23600 nM | [40] 18900 nM | [67] > 22200 nM | [42] 19100 nM | [43] 29000 nM | [44] > 100000 nM | [46] 15400 nM | [47] 16300 nM | [48] 20000 nM | [49] 16600 nM | [50] 9200 nM | [51] 8590 nM | [52] 18200 nM | [54] 6050 nM | [55] 16500 nM | [68] 30100 nM | [56] 16000 nM | [58] 45200 nM | [61] 17200 nM | [62] 22000 nM | [63] 31000 nM | [64] 17600 nM | [65] 20900 nM
17300 nM: [8]
